Data: patent US8124793B2, “Derivatives of ethylene methanedisulfonate as cancer chemotherapeutic agents” (priority 2007, dated 2012)

Legend:
Assay type in all cases: cell-based
HOP-62 = assay: NCI screen, growth of human tumor cells: Non-Small Cell Lung HOP-62; conditions: HOP-62 (Non-Small Cell Lung), 10^−4 molar
Protocol: (§1) In the NCI screening process, each compound was tested and described by a minimum of 60 data points. The test data include, but are not limited to the type of cancer, the molar concentration used in the screen, and the percent growth of the cancer. In some cases, NMR and elemental analysis were used for structural assignment.

HOP-92 = assay: NCI screen, growth of human tumor cells: Non-Small Cell Lung HOP-92
Protocol: as §1

SF-539 = assay: NCI screen, growth of human tumor cells: CNS Cancer SF-539
Protocol: as §1

SR = assay: NCI screen, growth of human tumor cells: Leukemia SR; conditions: for % Growth: SR
Protocol: as §1

human cancer cells = assay: NCI screen summary over the cancers tested (negative growth of human cancer cells); conditions: cancers with negative growth / cancers tested
Protocol: as §1
The derivatives in the tables are grouped using the same category as in the tables 1-6.

RXF-393 = assay: NCI screen, growth of human tumor cells: Renal Cancer RXF-393
Protocol: as §1

OVCAR-3 = assay: NCI screen, growth of human tumor cells: Ovarian Cancer OVCAR-3; conditions: OVCAR-3 (Ovarian Cancer), 10^−4 molar
Protocol: as §1

RPMI-8226 = assay: NCI screen, growth of human tumor cells: Leukemia RPMI-8226; conditions: RPMI-8226 (Leukemia), 10^−4 molar
Protocol: as §1

UACC-62 = assay: NCI screen, growth of human tumor cells: Melanoma UACC-62; conditions: UACC-62 (Melanoma), 10^−4 molar
Protocol: as §1

NCI-H226 = assay: NCI screen, growth of human tumor cells: Non-Small Cell Lung NCI-H226; conditions: NCI-H226 (Non-Small Cell Lung), 10^−4 molar
Protocol: as §1

CCRF-CEM = assay: NCI screen, growth of human tumor cells: Leukemia CCRF-CEM; conditions: CCRF-CEM (Leukemia), 10^−4 molar
Protocol: as §1

CAKI-1 = assay: NCI screen, growth of human tumor cells: Renal Cancer CAKI-1; conditions: CAKI-1 (Renal Cancer), 10^−4 molar
Protocol: as §1

SF-295 = assay: NCI screen, growth of human tumor cells: CNS Cancer SF-295
Protocol: as §1

HOP-18 = assay: NCI screen, growth of human tumor cells: Non-Small Cell Lung HOP-18
Protocol: as §1

NCI-H522 = assay: NCI screen, growth of human tumor cells: Non-Small Cell Lung NCI-H522
Protocol: as §1

## COC(=O)/C=C(\C(=O)OC)C1C(=O)Oc2c(C)c(=O)c3ccccc3n21 (stereo not shown) [NSC 670993]
HOP-62
  percent of growth of human tumor cells: −53%

## CSC(=NC(=O)c1cn([C@H]2O[C@H](COC(C)=O)[C@H]3OC(C)(C)O[C@H]32)c2ccccc12)SC [NSC 732264]
HOP-92; HOP-92 (Non-Small Cell Lung), 10^−4 molar
  percent of growth of human tumor cells: 22%

## O=S1(=O)OCCCOS(=O)(=O)C1(Br)Br [compound 665940]
SF-539; SF-539, 10^−4 molar
  % Growth: 63%
SF-539; SF-539, 10^−5 molar
  % Growth: 99%
SF-539; SF-539, 10^−6 molar
  % Growth: 43%
SF-539; SF-539, 10^−7 molar
  % Growth: 62%
SF-539; SF-539, 10^−8 molar
  % Growth: 47%

## CCCCCCCCOCC1S(=O)(=O)OCCOS1(=O)=O [NSC 671535]
SR; SR (Leukemia), 10^−4 molar
  percent of growth of human tumor cells: 5%
Human cancer cells; 10^−4 M conc.
  Percentage of cancers showing negative growth cancers tested: 10^−4 M conc. = 0/1 = 0%

## C[Si](C)(OCCS(=O)(=O)O)OC(=C1S(=O)(=O)OCCOS1(=O)=O)c1cccc2ccccc12.[Na+] [NSC 679049]
RXF-393; RXF-393 (Renal Cancer), 10^−4 molar
  percent of growth of human tumor cells: 23%
OVCAR-3
  percent of growth of human tumor cells: 22%

## C[Si](C)(OCCS(=O)(=O)[O-])C(=C1S(=O)(=O)OCCOS1(=O)=O)c1cccc2ccccc12.[Na+] [MWC 95-8]
Human cancer cells; 10^−4 M conc.
  Percentage of cancers showing negative growth cancers tested: 10^−4 M conc. = 0/1 = 0%

## O=S1(=O)OCCOS(=O)(=O)C1(Cl)Cl [NSC 648307]
RPMI-8226
  percent of growth of human tumor cells: 21%
UACC-62
  percent of growth of human tumor cells: 7%
Human cancer cells; 10^−4 M conc.
  Percentage of cancers showing negative growth cancers tested: 10^−4 M conc. = 0/5 = 0%
NCI-H226
  percent of growth of human tumor cells: 23%
CCRF-CEM
  percent of growth of human tumor cells: 29%
CAKI-1
  percent of growth of human tumor cells: 23%

## O=C(c1ccc2ccccc2c1)C1(I)S(=O)(=O)OCCOS1(=O)=O [NSC 679046]
Human cancer cells; 10^−4 M conc.
  Percentage of cancers showing negative growth cancers tested: 100%
Human cancer cells; 10^−5 M conc.
  Percentage of cancers showing negative growth cancers tested: 100%
Human cancer cells; 10^−6 M conc.
  Percentage of cancers showing negative growth cancers tested: 100%
Human cancer cells; 10^−7 M conc.
  Percentage of cancers showing negative growth cancers tested: 100%
Human cancer cells; 10^−8 M conc.
  Percentage of cancers showing negative growth cancers tested: 0%
SF-295; SF-295, 10^−4 molar
  % Growth: −52%
SF-295; SF-295, 10^−5 molar
  % Growth: −58%
SF-295; SF-295, 10^−6 molar
  % Growth: −65%
SF-295; SF-295, 10^−7 molar
  % Growth: −56%
SF-295; SF-295, 10^−8 molar
  % Growth: 51%

## COC=C1S(=O)(=O)OCCOS1(=O)=O [NSC 701691, ethylene 2-methoxy-1,1-ethylenedisulfonate]
SR; 10^−4 molar
  % Growth: 12%
SR; 10^−5 molar
  % Growth: 49%
HOP-18; HOP-18, 10^−4 molar
  % Growth: 44%
HOP-18; HOP-18, 10^−5 molar
  % Growth: 56%
HOP-18; HOP-18, 10^−6 molar
  % Growth: 92%
HOP-18; HOP-18, 10^−7 molar
  % Growth: 71%
HOP-18; HOP-18, 10^−8 molar
  % Growth: 58%
RXF-393; RXF-393, 10^−4 molar
  % Growth: 23%
RXF-393; RXF-393, 10^−5 molar
  % Growth: 55%
RXF-393; RXF-393, 10^−6 molar
  % Growth: 60%
RXF-393; RXF-393, 10^−7 molar
  % Growth: 68%
RXF-393; RXF-393, 10^−8 molar
  % Growth: 63%
NCI-H522; NCI-H522, 10^−4 molar
  % Growth: 66%
NCI-H522; NCI-H522, 10^−5 molar
  % Growth: 44%
NCI-H522; NCI-H522, 10^−6 molar
  % Growth: 67%
NCI-H522; NCI-H522, 10^−7 molar
  % Growth: 48%
NCI-H522; NCI-H522, 10^−8 molar
  % Growth: 73%
Human cancer cells; 10^−4 M conc.
  Percentage of cancers showing negative growth cancers tested: 10^−4 M conc. = 0/6 = 0%
CCRF-CEM
  percent of growth of human tumor cells: 24%
HOP-92; HOP-92, 10^−4 molar
  % Growth: 44%
HOP-92; HOP-92, 10^−5 molar
  % Growth: 56%
HOP-92; HOP-92, 10^−6 molar
  % Growth: 92%
HOP-92; HOP-92, 10^−7 molar
  % Growth: 71%
HOP-92; HOP-92, 10^−8 molar
  % Growth: 58%
